This note sets out measurements from US10464952B2, “Beta-lactamase inhibitors” (priority 2015, dated 2019).

Structures are written as SMILES.

One assay deals with T1, SHV-5 (Klebsiella pneumoniae, UniProt P0A3M1).
T1 construct: made in house; host or cells: E. coli BL21(DE3)
In words: β-lactamase enzyme inhibition assay, SHV-5 (cefotaxime substrate). Format: biochemical. The procedure: (§1) For SHV-5, KPC-2, p99AmpC and OXA-4813-lactamases, E. coli BL21(DE3) bacterial cells carrying expression plasmids (expressed as native untagged proteins) for the individual β-lactamases were grown in 1L of Superbroth (Teknova Inc. Hollister, Calif.) supplemented with 100 μg/ml kanamycin selection and 1×5052 (0.5% glycerol, 0.05% glucose and 0.2% α-lactose) at 35° C. for 18-20 hours. Cells were harvested by centrifugation (4,000 ×g, 4° C., 20 min), re-suspended in 50 ml of 10 mM HEPES pH 7.5 (1/20 of the initial volume). The cells were lysed by sonication (5 pulses of 45 seconds) at 45 Won ice. The lysates were clarified by centrifugation at 10,000 ×g for 40 minutes at 4° C. Samples were diluted 5-fold in 50 mM sodium acetate pH 5.0, stored overnight at 4° C., after which they were centrifuged at 10,000 ×g for 30 minutes to clarify, and filtered through 0.45 μm filters. The samples were loaded onto a 5 ml Capto S sepharose cation exchange column (GE Healthcare) pre-equilibrated with 50 mM sodium acetate pH 5.0. The column was washed with 5 column volumes of 50 mM sodium acetate pH 5.0 to wash out unbound protein and a linear gradient of NaCl (0 to 500 mM) was used to elute the protein (over 16 CV) from the column. Fractions were assayed for β-lactamase activity using Centa (Calbiochem, Gibbstown, N.J.) or Nitrocefin (EMD Millipore chemicals, Darmstadt, Germany) as a reporter β-lactamase substrate for activity in the isolated fractions. Active fractions were pooled, concentrated and further purified by gel filtration chromatography on a Superdex 75 prep grade gel filtration column (GE Healthcare, Piscataway, N.J.) pre -equilibrated in 50 mM Hepes pH 7.5, 150 mM NaCl. Active fractions were pooled, concentrated, and quantitated by BCA protein determination (ThermoScientific, Rockford, Ill.), dialyzed into PBS and frozen at […] in 20% glycerol until use.
(§2) An equal volume of diluted enzyme stock was added, and the plates were incubated at 37° C. for 15 min. Nitrocefin was used as substrate for p99 AmpC, VIM-2 and OXA-48 and dispensed into each well at a final concentration of 100 μM. Absorbance at 486 nm was immediately monitored for 10 min using a Biotek Powerwave XS2 microplate spectrophotometer using the GEN5 software package (Biotek Instruments, Winooski Vt.). In an analogous fashion, imipenem was used as substrate for KPC-2 and Cefotaxime was used for SHV-5, while changes in absorbance upon hydrolysis of the β-lactam ring were monitored at 300 nm and 260 nm respectively in UV-transparent 96-well microtiter assay plates. Maximum rates of hydrolysis were compared to those in control wells (without inhibitors), and percentages of enzyme inhibition were calculated for each concentration of inhibitor. The concentration of inhibitor needed to reduce the initial rate of hydrolysis of substrate by 50% (IC50) was calculated as the residual activity of β-lactamase at 486 nm using GraFit version 7 kinetics software package (Erithacus Software, Surrey, UK).
(§3) Using the methodology described above, examples of the current invention were evaluated for their ability to inhibit β-lactamase enzymes from all four Ambler classifications (A through D). […] NT=Not tested.

The target of assay [1] is T2, VIM-2 metallo β-lactamase (Pseudomonas aeruginosa, UniProt Q9K2N0).
T2 construct: made in house; host or cells: E. coli BL21(DE3)
Briefly: β-lactamase enzyme inhibition assay, VIM-2 (nitrocefin substrate). Format: biochemical. The note with it: 15 min preincubation at 37° C.; nitrocefin 100 μM, 486 nm; read-out: IC50 VIM-2 (Class B). As for the experimental part:
For VIM-2 metallo β-lactamase, the procedure was identical with the following exceptions, first the protein was not pH adjusted to pH 5 with 50 mM sodium acetate. Second, the chromatography step was changed to a 5 ml Q sepharose anion exchange column pre-equilibrated with 50 mM Hepes pH 7.5, and elution of the protein was achieved by a linear gradient of NaCl (0-600 mM). Finally, the VIM-2 purification required a second run (3rd step) on the Q sepharose anion exchange column to achieve acceptable purity (>90%).
as §2, §3

Assay [2] deals with P.aeruginosa expressing the Class B carbapenemase VIM-2. In words: Broth microdilution MIC assay, potentiation of meropenem. Format: cell-based. The note with it: Fixed Mero 4 μg/mL; CAMHB, 16-20 hours at 37° C. The text has this:
(§4) To determine the ability of test compounds to potentiate the inhibition of the growth of bacterial strains that produce beta-lactamase enzymes, classic cell based broth microdilution MIC assays were employed. Six bacteria strains producing beta-lactamase enzymes were used: E. coli expressing the Class A Extended Spectrum Beta-Lactamase (ESBL) CTX-M-15, E. cloacae expressing the Class C P99, K. pneumoniae expressing the Class A carbapenemase KPC-3, P.aeruginosa expressing the Class B carbapenemase VIM-2, K. pneumoniae expressing the class A carbapenemase KPC-2 and the class B carbapenemase VIM-4, and K. pneumoniae producing the Class D carbapenemase OXA-48. The assay was conducted in Cation Adjusted Mueller Hinton Broth (CAMHB, BD #212322, BD Diagnostic Systems, Sparks, Md.). Bacteria strains were grown for 3-5 hours in CAMHB broth. Test compounds were added to a microtiter plate in 2-fold serial dilutions in CAMHB in a final concentration range of 32 μg/mL to 0.015 μg/mL. An overlay of CAMHB containing a Beta-lactam was added to the compounds at a final static concentration of 4 μg/mL. […] In addition to the titration of test compounds the MICs of a panel of control beta-lactams is also tested to ensure the strains are behaving consistently from test to test. Once the test compound and antibiotics are added the plates can be inoculated according to CLSI broth microdilution method. After inoculation, the plates are incubated for 16-20 hours at 37° C., then the Minimal Inhibitory Concentration (MIC) of the test compound is determined visually.
(§5) Using the methodology described above, examples of the current invention were evaluated for their ability to inhibit the growth of β-lactamase-producing bacteria in the presence of a β-lactam antibiotic.
(§6) Representative results are shown in Table 3 where A represents an MIC of the fixed β-lactam antibiotic in the presence of >32 μg/mL of a β-lactamase inhibitor of exemplary compounds, B represents the MIC in the presence of between 8 and 32 μg/mL of a β-lactamase inhibitor of exemplary compounds, and C represents the MIC in the presence of ≤4 μg/mL of a β-lactamase inhibitor of exemplary compounds. NT=Not Tested.
(In general: Broth dilution looks for growth in wells or tubes with falling amounts of substance.)

Assay [3] has as its system K. pneumoniae expressing the class A carbapenemase KPC-2 and the class B carbapenemase VIM-4. The description is as above. Format: cell-based. The note with it: Fixed Mero 4 μg/mL; CAMHB, 16-20 hours at 37° C.
Text: as §4, §5, §6

Assay [4] deals with K. pneumoniae producing the Class D carbapenemase OXA-48. The assay is described as above. Format: cell-based. The note with it: Fixed Mero 4 μg/mL; CAMHB, 16-20 hours at 37° C.
Text: as §4, §5

The subject of assay [5] is K. pneumoniae expressing the Class A carbapenemase KPC-3. The assay is described as above. Format: cell-based. The note with it: Fixed Mero 4 μg/mL; CAMHB, 16-20 hours at 37° C.
Text: as §4, §5

The test system of assay [6] is E. cloacae expressing the Class C P99. In words: Broth microdilution MIC assay, potentiation of ceftazidime. Format: cell-based. The note with it: Fixed CAZ 4 μg/mL; CAMHB, 16-20 hours at 37° C.
Text: as §4, §5, §6

Assay [7] relates to E. coli expressing the Class A Extended Spectrum Beta-Lactamase (ESBL) CTX-M-15. The assay is described as above. Format: cell-based. The note with it: Fixed CAZ 4 μg/mL; CAMHB, 16-20 hours at 37° C.
Text: as §4, §5, §6

A further assay has as its target T3, KPC-2 (Klebsiella pneumoniae, UniProt Q9F663).
T3 construct: made in house; host or cells: E. coli BL21(DE3)
Briefly: β-lactamase enzyme inhibition assay, KPC-2 (imipenem substrate). Format: biochemical. The procedure: as §1, §2, §3

The target of a further assay is T4, p99 AmpC (Enterobacter cloacae, UniProt P05364).
T4 construct: made in house; host or cells: E. coli BL21(DE3)
In words: β-lactamase enzyme inhibition assay, p99 AmpC (nitrocefin substrate). Format: biochemical. The procedure: as §1, §2, §3

In another assay the target is T5, OXA-48 (Klebsiella pneumoniae, UniProt Q6XEC0).
T5 construct: made in house; host or cells: E. coli BL21(DE3)
Briefly: β-lactamase enzyme inhibition assay, OXA-48 (nitrocefin substrate). Format: biochemical. As for the experimental part:
as §1, §2, §3

T4 sequence (P05364 21-381): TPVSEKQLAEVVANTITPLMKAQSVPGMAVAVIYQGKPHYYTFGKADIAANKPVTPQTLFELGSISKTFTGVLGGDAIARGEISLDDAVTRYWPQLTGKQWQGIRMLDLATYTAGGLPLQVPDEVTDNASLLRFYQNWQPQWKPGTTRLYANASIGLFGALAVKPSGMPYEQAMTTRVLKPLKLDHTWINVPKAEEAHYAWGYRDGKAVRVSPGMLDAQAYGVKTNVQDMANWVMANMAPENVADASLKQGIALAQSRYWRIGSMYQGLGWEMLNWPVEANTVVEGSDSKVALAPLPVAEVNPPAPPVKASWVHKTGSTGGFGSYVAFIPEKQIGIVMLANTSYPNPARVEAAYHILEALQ
T1 sequence (P0A3M1 22-286): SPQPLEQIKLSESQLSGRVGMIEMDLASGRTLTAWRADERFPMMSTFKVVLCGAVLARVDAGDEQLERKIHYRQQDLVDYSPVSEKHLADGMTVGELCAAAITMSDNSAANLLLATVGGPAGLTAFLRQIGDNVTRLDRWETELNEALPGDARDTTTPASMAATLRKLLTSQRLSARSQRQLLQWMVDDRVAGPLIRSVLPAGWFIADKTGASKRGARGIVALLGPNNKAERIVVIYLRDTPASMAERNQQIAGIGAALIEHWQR
T5 sequence (Q6XEC0 23-265 limits assumed): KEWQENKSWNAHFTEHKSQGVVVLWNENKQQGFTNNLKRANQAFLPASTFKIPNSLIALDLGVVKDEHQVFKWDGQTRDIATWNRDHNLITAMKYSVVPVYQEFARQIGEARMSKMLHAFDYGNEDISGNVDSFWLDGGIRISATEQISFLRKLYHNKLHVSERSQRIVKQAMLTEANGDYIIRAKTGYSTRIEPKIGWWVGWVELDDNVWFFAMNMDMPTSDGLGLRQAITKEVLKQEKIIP
T3 sequence (Q9F663 25-293 limits assumed): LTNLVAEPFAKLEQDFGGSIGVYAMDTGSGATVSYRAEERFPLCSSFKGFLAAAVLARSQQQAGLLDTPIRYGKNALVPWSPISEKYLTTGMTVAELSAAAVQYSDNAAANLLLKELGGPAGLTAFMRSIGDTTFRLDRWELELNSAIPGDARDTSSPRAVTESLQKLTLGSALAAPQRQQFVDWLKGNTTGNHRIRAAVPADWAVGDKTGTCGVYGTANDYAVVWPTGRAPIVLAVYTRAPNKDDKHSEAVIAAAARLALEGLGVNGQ

Consider `CC(F)(F)CC(=O)N[C@H]1Cc2cccc(C(=O)O)c2OB1O` [Example 3, (R)-3-(3,3-difluorobutanamido)-2-hydroxy-3,4-dihydro-2H-benzo [e][1,2]oxaborinine-8-carboxylic acid], for which the IC50 (commonly the concentration needed to halve the response being measured) was < 0.1 µM on SHV-5; 1 to 10 µM in assay [1]; 0.1 to 1 µM against KPC-2; < 0.1 µM against p99 AmpC; 0.1 to 1 µM against OXA-48. Further, in [2], the “MIC (μg/mL) of exemplary compounds in presence of fixed β-lactams, P. aerug. 2775 VIM-2” value was “C (C represents the MIC in the presence of ≤4 μg/mL of a β-lactamase inhibitor)”. In addition, the “MIC (μg/mL) of exemplary compounds in presence of fixed β-lactams, K.P. A-1797 KPC-2 VIM-4” value in assay [3] is reported as “C (C represents the MIC in the presence of ≤4 μg/mL of a β-lactamase inhibitor)”. In assay [4], the “MIC (μg/mL) of exemplary compounds in presence of fixed β-lactams, K. P. 11978 OXA-48” value was “C (C represents the MIC in the presence of ≤4 μg/mL of a β-lactamase inhibitor)”. The “MIC (μg/mL) of exemplary compounds in presence of fixed β-lactams, K. P. 156319 KPC-3” value in assay [5] was “C (C represents the MIC in the presence of ≤4 μg/mL of a β-lactamase inhibitor)”. Also, the “MIC (μg/mL) of exemplary compounds in presence of fixed β-lactams, E. cl. 144200 p99 AmpC” value in assay [6] is on record as “C (C represents the MIC in the presence of ≤4 μg/mL of a β-lactamase inhibitor)”. Also, the “MIC (μg/mL) of exemplary compounds in presence of fixed β-lactams, E. coli ESBL4 CTX-M-15” value in assay [7] is on record as “C (C represents the MIC in the presence of ≤4 μg/mL of a β-lactamase inhibitor)”.
As for `CC(F)(F)CCC(=O)N[C@H]1Cc2cccc(C(=O)O)c2OB1O` [Example 85, (R)-3-(4,4-Difluoro-pentanoylamino)-2-hydroxy-3,4-dihydro-2H -benzo[e][1,2]oxaborinine-8-carboxylic acid], the IC50 was < 0.1 µM against SHV-5; 1 to 10 µM in [1]; < 0.1 µM against KPC-2; < 0.1 µM against p99 AmpC; 1 to 10 µM against OXA-48. For the same compound, in assay [2], the “MIC (μg/mL) of exemplary compounds in presence of fixed β-lactams, P. aerug. 2775 VIM-2” value is recorded as “C (C represents the MIC in the presence of ≤4 μg/mL of a β-lactamase inhibitor)”. Also, the “MIC (μg/mL) of exemplary compounds in presence of fixed β-lactams, K.P. A-1797 KPC-2 VIM-4” value in [3] was “B (B represents the MIC in the presence of between 8 and 32 μg/mL of a β-lactamase inhibitor)”. Also, the “MIC (μg/mL) of exemplary compounds in presence of fixed β-lactams, K. P. 11978 OXA-48” value in assay [4] is “C (C represents the MIC in the presence of ≤4 μg/mL of a β-lactamase inhibitor)”. Further, in assay [5], the “MIC (μg/mL) of exemplary compounds in presence of fixed β-lactams, K. P. 156319 KPC-3” value is reported as “C (C represents the MIC in the presence of ≤4 μg/mL of a β-lactamase inhibitor)”. For the same compound, in assay [6], the “MIC (μg/mL) of exemplary compounds in presence of fixed β-lactams, E. cl. 144200 p99 AmpC” value was “C (C represents the MIC in the presence of ≤4 μg/mL of a β-lactamase inhibitor)”. In [7], the “MIC (μg/mL) of exemplary compounds in presence of fixed β-lactams, E. coli ESBL4 CTX-M-15” value is reported as “C (C represents the MIC in the presence of ≤4 μg/mL of a β-lactamase inhibitor)”.
